In patent US11427548B2 (Arvinas Operations, Inc., priority 2015, dated 2022):
Like-named read-outs stand apart in the source and are kept apart here. One block for each compound: values may come before it.

Molecular target: T1, Androgen Receptor (Homo sapiens, UniProt P10275)
T1 construct: endogenous in cells; host or cells: VCaP cells
T1 sequence (P10275 1-920): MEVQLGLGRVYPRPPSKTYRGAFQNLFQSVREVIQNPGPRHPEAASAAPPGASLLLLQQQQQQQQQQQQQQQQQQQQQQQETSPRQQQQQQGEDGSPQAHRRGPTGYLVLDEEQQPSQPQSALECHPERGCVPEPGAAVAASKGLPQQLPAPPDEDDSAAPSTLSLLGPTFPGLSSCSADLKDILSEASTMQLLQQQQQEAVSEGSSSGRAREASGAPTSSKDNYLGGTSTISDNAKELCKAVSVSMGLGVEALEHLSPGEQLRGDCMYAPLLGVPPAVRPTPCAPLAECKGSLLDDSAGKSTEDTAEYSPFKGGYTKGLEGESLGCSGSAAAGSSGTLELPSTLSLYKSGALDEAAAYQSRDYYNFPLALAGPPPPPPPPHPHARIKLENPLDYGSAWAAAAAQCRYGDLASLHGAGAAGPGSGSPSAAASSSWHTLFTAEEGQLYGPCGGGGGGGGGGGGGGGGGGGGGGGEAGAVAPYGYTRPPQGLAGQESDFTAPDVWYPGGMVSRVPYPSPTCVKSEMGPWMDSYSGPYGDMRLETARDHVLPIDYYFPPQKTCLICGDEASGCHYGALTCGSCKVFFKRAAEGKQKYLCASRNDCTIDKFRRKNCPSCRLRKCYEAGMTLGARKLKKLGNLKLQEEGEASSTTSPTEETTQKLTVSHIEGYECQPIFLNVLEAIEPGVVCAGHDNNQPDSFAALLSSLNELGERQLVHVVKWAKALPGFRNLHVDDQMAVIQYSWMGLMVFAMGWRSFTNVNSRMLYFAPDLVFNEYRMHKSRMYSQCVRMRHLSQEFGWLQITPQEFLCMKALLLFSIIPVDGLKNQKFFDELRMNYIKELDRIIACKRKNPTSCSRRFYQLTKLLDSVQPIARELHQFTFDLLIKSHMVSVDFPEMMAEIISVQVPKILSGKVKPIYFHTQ
Assay: Androgen Receptor ELISA assay (PathScan AR ELISA) in VCaP cells: AR degradation, Dmax and DC50
Assay type: cell-based
How it was run: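 After 24 h exposure of VCaP cells (charcoal-stripped serum, 0.1 nM R1881 agonist, 0.1% DMSO) to seven half-log compound concentrations, residual AR in lysates was measured by PathScan ELISA (TMB absorbance, 450 nm). Cells were plated at 30,000/well and grown at least 3 days beforehand.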

[1] = VCaP cells; Table 36; read-out: VCaP DC50
[2] = read-out: VCaP DC50; VCaP cells; Table 36
[3] = VCaP cells; Table 35; read-out: VCaP DC50
[4] = VCaP, VCaP cells; Table 35; read-out: VCaP Dmax (%)
[5] = VCaP, VCaP cells; Table 36; read-out: VCaP Dmax (%)

Compound: Cc1ncsc1-c1ccc([C@H](C)NC(=O)[C@@H]2C[C@@H](O)CN2C(=O)[C@H](C(C)C)N2Cc3ccc(N4CCN(CCCc5ccc(C(=O)N[C@H]6C(C)(C)[C@H](Oc7ccc(C#N)c(Cl)c7)C6(C)C)cc5)CC4)cc3C2=O)cc1 [Example 778, (2S,4R)-1-((S)-2-(6-(4-(3-(4-(((1r,3r)-3-(3-chloro-4-cyanophenoxy)-2,2,4,4-tetramethylcyclobutyl)carbamoyl)phenyl)propyl)piperazin-1-yl)-1-oxoisoindolin-2-yl)-3-methylbutanoyl)-4-hydroxy-N-((S)-1-(4-(4-methylthiazol-5-yl)phenyl)ethyl)pyrrolidine-2-carboxamide]
DC50 [1]: > 501 nM
Dmax (VCaP, read-out: VCaP Dmax (%)): < 25%

Compound: CC(C)(C)[C@H](NC(=O)COCCCCOc1ccc(-c2ccc(N3C(=S)N(c4ccc(C#N)c(Cl)c4)C(=O)C3(C)C)cc2)nc1)C(=O)N1C[C@H](O)C[C@H]1C(=O)NCc1ccc(-c2cnco2)cc1 [Example 89]
Dmax (VCaP, read-out: VCaP Dmax (%)): > 71%
DC50 (read-out: VCaP DC50; concentration that caused 50% Androgen Receptor degradation, VCaP cells (Table 32)): < 50 nM

Compound: Cc1ncsc1-c1ccc([C@H](CO)NC(=O)[C@@H]2C[C@@H](O)CN2C(=O)[C@@H](NC(=O)CN2CCN(CC3CCN(c4ccc(C(=O)N[C@H]5C(C)(C)[C@H](Oc6ccc(C#N)c(Cl)c6)C5(C)C)cn4)CC3)CC2)C(C)(C)C)cc1 [Example 854, N-((1r,3r)-3-(3-chloro-4-cyanophenoxy)-2,2,4,4-tetramethylcyclobutyl)-6-(4-((4-(2-(((S)-1-((2S,4R)-4-hydroxy-2-(((R)-2-hydroxy-1-(4-(4-methylthiazol-5-yl)phenyl)ethyl)carbamoyl)pyrrolidin-1-yl)-3,3-dimethyl-1-oxobutan-2-yl)amino)-2-oxoethyl)piperazin-1-yl)methyl)piperidin-1-yl)nicotinamide]
DC50 [1]: < 50 nM
Dmax (VCaP, read-out: VCaP Dmax (%)): > 71%

Compound: COc1cc(N2C(=O)C(C)(C)N(c3ccc(OCCCCOCCCOCC(=O)N[C@H](C(=O)N4C[C@H](O)C[C@H]4C(=O)NCc4ccc(-c5cnco5)cc4)C(C)(C)C)c(F)c3)C2=S)ccc1C#N [Example 49, (2S,4R)-1-[(2S)-2-{2-[3-(4-{4-[3-(4-cyano-3-methoxyphenyl)-5,5-dimethyl-4-oxo-2-sulfanylideneimidazolidin-1-yl]-2-fluorophenoxy}butoxy)propoxy]acetamido}-3,3-dimethylbutanoyl]-4-hydroxy-N-{[4-(1,3-oxazol-5-yl)phenyl]methyl}pyrrolidine-2-carboxamide]
Dmax (VCaP, highest percentage of Androgen Receptor degradation observed, VCaP cells; read-out: VCaP Dmax (%)): 51 to 70%
DC50 (concentration that caused 50% Androgen Receptor degradation, VCaP cells; read-out: VCaP DC50): < 50 nM

Dmax (VCaP, highest percentage of Androgen Receptor degradation observed, VCaP cells (Table 32); read-out: VCaP Dmax (%)): > 71%
DC50 (concentration that caused 50% Androgen Receptor degradation, VCaP cells (Table 32); read-out: VCaP DC50): < 50 nM
Compound: Cc1ncsc1-c1ccc(CNC(=O)[C@@H]2C[C@@H](O)CN2C(=O)[C@@H](NC(=O)COCCCC[C@H](C)Oc2ccc(C(=O)N[C@H]3C(C)(C)[C@H](Oc4ccc(C#N)c(Cl)c4)C3(C)C)cc2)C(C)(C)C)cc1 [Example 161, (2S,4R)-1-[(2S)-3,3-dimethyl-2-(2-{[(5R)-5-(4-{[trans-3-(3-chloro-4-cyanophenoxy)-2,2,4,4-tetramethylcyclobutyl]carbamoyl}phen-oxy)hexyl]oxy}acetamido)butanoyl]-4-hydroxy-N-{[4-(4-methyl-1,3-thiazol-5-yl)phenyl]methyl}pyrrolidine-2-carboxamide]

Compound: Cc1ncsc1-c1ccc(CNC(=O)[C@@H]2C[C@@H](O)CN2C(=O)[C@@H](NC(=O)CN(C)CCCCOCCCOc2ccc(N3C(=S)N(c4ccc(C#N)c(C(F)(F)F)c4)C(=O)C3(C)C)cc2)C(C)(C)C)cc1 [Example 317]
Dmax (VCaP, read-out: VCaP Dmax (%)): 26 to 50%
DC50 (read-out: VCaP DC50; VCaP cells; Table 34): 51 to 500 nM

Compound: Cc1ncsc1-c1ccc(CNC(=O)[C@@H]2C[C@@H](O)CN2C(=O)[C@H](C(C)C)n2cc(Oc3cccc(OCCCCCOc4ccc(N5C(=S)N(c6ccc(C#N)c(C(F)(F)F)c6)C(=O)C5(C)C)cc4)c3)cn2)cc1 [Example 601, (2S,4R)-1-((S)-2-(4-(3-((5-(4-(3-(4-cyano-3-(trifluoromethyl)phenyl)-5,5-dimethyl-4-oxo-2-thioxoimidazolidin-1-yl)phenoxy)pentyl)oxy)phenoxy)-1H-pyrazol-1-yl)-3-methylbutanoyl)-4-hydroxy-N-(4-(4-methylthiazol-5-yl)benzyl)pyrrolidine-2-carboxamide]
Dmax (VCaP, read-out: VCaP Dmax (%)): < 25%
DC50 [2]: > 501 nM

DC50 [3]: < 50 nM
Dmax [4]: 51 to 70%
Compound: CC(C)(C)[C@H](NC(=O)COCCCCCNc1ccc(C(=O)N[C@H]2C(C)(C)[C@H](Oc3ccc(C#N)c(Cl)c3)C2(C)C)cc1)C(=O)N1C[C@H](O)C[C@H]1C(=O)NCc1ccc(-c2scnc2C#N)cc1 [Example 521]

DC50 [1]: > 501 nM
Dmax [5]: < 25%
Compound: COc1cc(C#N)ccc1[C@H](C)NC(=O)[C@@H]1C[C@@H](O)CN1C(=O)[C@@H](NC(=O)CCCCN1CCN(c2ccc(C(=O)N[C@H]3C(C)(C)[C@H](Oc4ccc(C#N)c(Cl)c4)C3(C)C)cn2)CC1)C(C)(C)C [Example 784, N-((1r,3r)-3-(3-chloro-4-cyanophenoxy)-2,2,4,4-tetramethylcyclobutyl)-6-(4-(5-(((S)-1-((2S,4R)-2-(((S)-1-(4-cyano-2-methoxyphenyl)ethyl)carbamoyl)-4-hydroxypyrrolidin-1-yl)-3,3-dimethyl-1-oxobutan-2-yl)amino)-5-oxopentyl)piperazin-1-yl)nicotinamide]

DC50 (VCaP cells; Table 34; read-out: VCaP DC50): < 50 nM
Dmax (VCaP, VCaP cells; Table 34; read-out: VCaP Dmax (%)): > 71%
Compound: CC(C)(C)[C@H](NC(=O)COCCCCCOCCn1cc(C(=O)N[C@H]2C(C)(C)[C@H](Oc3ccc(C#N)c(Cl)c3)C2(C)C)cn1)C(=O)N1C[C@H](O)C[C@H]1C(=O)NCc1ccc(-c2cncs2)cc1 [Example 339]

Compound: Cc1ncsc1-c1ccc([C@H](C)NC(=O)[C@@H]2C[C@@H](O)CN2C(=O)[C@@H](NC(=O)CN2CCN(CC3(CNc4ccc(C(=O)N[C@H]5C(C)(C)[C@H](Oc6ccc(C#N)c(C(F)(F)F)c6)C5(C)C)cc4)COC3)CC2)C(C)(C)C)cc1 [Example 686, (2S,4R)-1-((S)-2-(2-(4-((3-(((4-(((1r,3r)-3-(4-cyano-3-(trifluoromethyl)phenoxy)-2,2,4,4-tetramethylcyclobutyl)carbamoyl)phenyl)amino)methyl)oxetan-3-yl)methyl)piperazin-1-yl)acetamido)-3,3-dimethylbutanoyl)-4-hydroxy-N-((S)-1-(4-(4-methylthiazol-5-yl)phenyl)ethyl)pyrrolidine-2-carboxamide]
Dmax (VCaP, read-out: VCaP Dmax (%)): 26 to 50%
DC50 [2]: < 50 nM

DC50 [3]: < 50 nM
Dmax [4]: > 71%
Compound: Cc1ncsc1-c1ccc([C@H](CN)NC(=O)[C@@H]2C[C@@H](O)CN2C(=O)[C@@H](NC(=O)COCCCCCOc2ccc(C(=O)N[C@H]3C(C)(C)[C@H](Oc4ccc(C#N)c(Cl)c4)C3(C)C)cc2)C(C)(C)C)cc1 [Example 475]

DC50 [3]: 51 to 500 nM
Dmax [4]: 26 to 50%
Compound: CC(C)(C)[C@H](NC(=O)COCCCCCOc1ccc(C(=O)N[C@H]2C(C)(C)[C@H](Oc3ccc(C#N)c(Cl)c3)C2(C)C)cc1)C(=O)N1C[C@H](O)C[C@H]1C(=O)O [Example 509]

DC50 [1]: < 50 nM
Dmax [5]: 51 to 70%
Compound: COc1cc(C#N)ccc1[C@H](C)NC(=O)[C@@H]1C[C@@H](O)CN1C(=O)[C@@H](NC(=O)COCCN1CCN(c2ccc(C(=O)N[C@H]3C(C)(C)[C@H](Oc4ccc(C#N)c(Cl)c4)C3(C)C)cn2)CC1)C(C)(C)C [Example 785, N-((1r,3r)-3-(3-chloro-4-cyanophenoxy)-2,2,4,4-tetramethylcyclobutyl)-6-(4-(2-(2-(((S)-1-((2S,4R)-2-(((S)-1-(4-cyano-2-methoxyphenyl)ethyl)carbamoyl)-4-hydroxypyrrolidin-1-yl)-3,3-dimethyl-1-oxobutan-2-yl)amino)-2-oxoethoxy)ethyl)piperazin-1-yl)nicotinamide]

DC50 [1]: < 50 nM
Dmax [5]: > 71%
Compound: Cc1ncsc1-c1ccc([C@H](C)NC(=O)[C@@H]2C[C@@H](O)CN2C(=O)[C@@H](NC(=O)COCCN2CCN(c3ccc(C(=O)N[C@H]4C(C)(C)[C@H](Oc5ccc(C#N)c(Cl)c5)C4(C)C)nc3)CC2)C(C)(C)C)cc1 [Example 654, N-((1r,3r)-3-(3-chloro-4-cyanophenoxy)-2,2,4,4-tetramethylcyclobutyl)-5-(4-(2-(2-(((S)-1-((2S,4R)-4-hydroxy-2-(((S)-1-(4-(4-methylthiazol-5-yl)phenyl)ethyl)carbam-oyl)pyrrolidin-1-yl)-3,3-dimethyl-1-oxobutan-2-yl)amino)-2-oxoethoxy)ethyl)pipera-zin-1-yl)picolinamide]
